Test results reported in PubChem BioAssay AID248 (DTP/NCI, 2004).
Several values for one entry are separate records, joined by “and”; a condition that tells them apart may be missing. Equal values may be shown once. Inconclusive results and toxic doses are left out. No stated cut-off is given here; in the data, active means T/C of 150% or more; inactive means T/C below 125%.

Test system: L1210 leukemia ip in BDF1 mice, survival T/C
Assay: NCI In Vivo Anticancer Drug Screen. Data for tumor model L1210 Leukemia (intraperitoneal) in B6D2F1 (BDF1) mice
Details: endpoint: mean survival time, higher = longer survival
Method in brief: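 Ratio derived from survival: compound-dosed mice over vehicle-dosed mice, all bearing a transplantable tumor.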

[1] = dose: 100.0 mg/kg/injection, schedule: Q01DX001 (ip), vehicle: acetone
[2] = dose: 200.0 mg/kg/injection, schedule: Q01DX001 (ip), vehicle: acetone
[3] = dose: 200.0 mg/kg/injection, schedule: Q04DX003 (ip), vehicle: saline
[4] = dose: 400.0 mg/kg/injection, schedule: Q01DX001 (ip), vehicle: acetone
[5] = dose: 400.0 mg/kg/injection, schedule: Q04DX003 (ip), vehicle: saline
[6] = dose: 100.0 mg/kg/injection, schedule: Q01DX009 (ip), vehicle: saline with Tween-80
[7] = dose: 200.0 mg/kg/injection, schedule: Q01DX009 (ip), vehicle: saline with Tween-80
[8] = dose: 400.0 mg/kg/injection, schedule: Q01DX009 (ip), vehicle: saline with Tween-80
[9] = dose: 100.0 mg/kg/injection, schedule: Q04DX003 (ip), vehicle: saline
[10] = dose: 100.0 mg/kg/injection, schedule: Q04DX003 (ip), vehicle: saline with Tween-80
[11] = dose: 200.0 mg/kg/injection, schedule: Q04DX003 (ip), vehicle: saline with Tween-80
[12] = dose: 400.0 mg/kg/injection, schedule: Q04DX003 (ip), vehicle: saline with Tween-80

Measured: T/C

COc1ccc(OC)c(NC(=O)Nc2ccc(CCO)cc2)c1
inactive: dose: 100.0 mg/kg/injection, schedule: Q01DX009 (ip), vehicle: saline 99 % of control | dose: 200.0 mg/kg/injection, schedule: Q01DX009 (ip), vehicle: saline 102 % of control | dose: 400.0 mg/kg/injection, schedule: Q01DX009 (ip), vehicle: saline 103 % of control

CCCCCCCCCCCCOc1ccc(C(=O)CC(=O)OCC)cc1
inactive: [1] 95 % of control | [2] 100 % of control | [3] 90 % of control | [4] 108 % of control | [5] 89 % of control

COc1ccc2cc(OC)ccc2c1
inactive: dose: 100.0 mg/kg/injection, schedule: Q01DX001 (ip), vehicle: saline sonified 98 % of control | dose: 200.0 mg/kg/injection, schedule: Q01DX001 (ip), vehicle: saline sonified 96 % of control | dose: 400.0 mg/kg/injection, schedule: Q01DX001 (ip), vehicle: saline sonified 96 % of control

N#CCCP(=O)(CCC#N)CCCCCCP(=O)(CCC#N)CCC#N
inactive: [6] 90 % of control | [7] 90 % of control | [8] 89 % of control

CC(/C=C/c1ccco1)=N\O
inactive: dose: 50.0 mg/kg/injection, schedule: Q01DX009 (ip), vehicle: other 105 % of control

CCS[S+](CC)CC
inactive: dose: 6.25 mg/kg/injection, schedule: Q01DX009 (ip), vehicle: saline with Tween-80 98 % of control | dose: 12.5 mg/kg/injection, schedule: Q01DX009 (ip), vehicle: saline with Tween-80 102 % of control

O=C(O)c1ccc(NCc2cc(=O)[nH]c(=O)[nH]2)cc1
inactive: [9] 101 % of control | [3] 95 % of control | [5] 103 % of control

NC(=S)NCCO
inactive: [9] 105 % of control | [3] 98 % of control | [5] 100 % of control

COC1C(N)C(O)OC(CO)C1O (centres undefined)
inactive: dose: 100.0 mg/kg/injection, schedule: Q01DX001 (ip), vehicle: saline 99 % of control | dose: 200.0 mg/kg/injection, schedule: Q01DX001 (ip), vehicle: saline 103 % of control | dose: 400.0 mg/kg/injection, schedule: Q01DX001 (ip), vehicle: saline 94 % of control

CCOC(=O)C(C/C=C/c1ccccc1)C(C)=O (centres undefined)
inactive: dose: 100.0 mg/kg/injection, schedule: Q04DX002 (ip), vehicle: saline with Tween-80 90 % of control | dose: 200.0 mg/kg/injection, schedule: Q04DX002 (ip), vehicle: saline with Tween-80 97 % of control | dose: 400.0 mg/kg/injection, schedule: Q04DX002 (ip), vehicle: saline with Tween-80 90 % of control

CC(=O)[C@@]12OC(C)(C)O[C@@H]1C[C@H]1[C@@H]3C[C@H](C)C4=CC(=O)CC[C@]4(C)[C@H]3CC[C@@]12C
inactive: dose: 100.0 mg/kg/injection, schedule: Q01DX001 (ip), vehicle: steriod suspending solution 103 % of control | dose: 100.0 mg/kg/injection, schedule: Q04DX003 (ip), vehicle: steriod suspending solution 100 % of control | dose: 200.0 mg/kg/injection, schedule: Q01DX001 (ip), vehicle: steriod suspending solution 98 % of control | dose: 200.0 mg/kg/injection, schedule: Q04DX003 (ip), vehicle: steriod suspending solution 98 % of control | dose: 400.0 mg/kg/injection, schedule: Q01DX001 (ip), vehicle: steriod suspending solution 97 % of control | dose: 400.0 mg/kg/injection, schedule: Q04DX003 (ip), vehicle: steriod suspending solution 97 % of control

CCCCCCCCCCC(=O)N(CC)CC
inactive: dose: 100.0 mg/kg/injection, schedule: Q01DX009 (ip), vehicle: carboxymethylcellulose (CMC) 97 % of control and 92 % of control | dose: 100.0 mg/kg/injection, schedule: Q04DX002 (ip), vehicle: carboxymethylcellulose (CMC) 94 % of control | dose: 200.0 mg/kg/injection, schedule: Q01DX009 (ip), vehicle: carboxymethylcellulose (CMC) 97 % of control and 100 % of control | dose: 200.0 mg/kg/injection, schedule: Q04DX002 (ip), vehicle: carboxymethylcellulose (CMC) 96 % of control | dose: 400.0 mg/kg/injection, schedule: Q01DX009 (ip), vehicle: carboxymethylcellulose (CMC) 96 % of control | dose: 400.0 mg/kg/injection, schedule: Q04DX002 (ip), vehicle: carboxymethylcellulose (CMC) 100 % of control

Cc1noc(N)c1-n1c(C)ccc1C
inactive: [6] 102 % of control | [10] 100 % of control | [7] 105 % of control | [11] 98 % of control | [8] 100 % of control | [12] 94 % of control

COc1ccc(OC)c2[nH]c(=O)c(-c3ccccc3)nc12
inactive: [10] 97 % of control | [11] 95 % of control | [12] 91 % of control

Nc1c(F)c(N)c(F)c(F)c1F
inactive: dose: 5.0 mg/kg/injection, schedule: Q01DX001 (ip), vehicle: acetone 98 % of control | dose: 10.0 mg/kg/injection, schedule: Q01DX001 (ip), vehicle: acetone 121 % of control | dose: 20.0 mg/kg/injection, schedule: Q01DX001 (ip), vehicle: acetone 107 % of control | dose: 20.0 mg/kg/injection, schedule: Q04DX002 (ip), vehicle: saline with Tween-80 106 % of control and 115 % of control | dose: 40.0 mg/kg/injection, schedule: Q01DX001 (ip), vehicle: acetone 106 % of control | dose: 40.0 mg/kg/injection, schedule: Q04DX002 (ip), vehicle: saline with Tween-80 95 % of control and 105 % of control | dose: 80.0 mg/kg/injection, schedule: Q01DX001 (ip), vehicle: acetone 101 % of control | dose: 80.0 mg/kg/injection, schedule: Q04DX002 (ip), vehicle: saline with Tween-80 98 % of control and 114 % of control

CC(C)(C)c1cc(CN2CCOCC2)cc(C(C)(C)C)c1O
inactive: [6] 96 % of control | [7] 104 % of control | [8] 96 % of control

[O-][N+](Cc1ccccc1)=Nc1ccccc1
inactive: dose: 100.0 mg/kg/injection, schedule: Q01DX001 (ip), vehicle: Klucel (hydroxypropylcellulose) (HPC) 100 % of control | dose: 200.0 mg/kg/injection, schedule: Q01DX001 (ip), vehicle: Klucel (hydroxypropylcellulose) (HPC) 96 % of control | dose: 400.0 mg/kg/injection, schedule: Q01DX001 (ip), vehicle: Klucel (hydroxypropylcellulose) (HPC) 89 % of control

ClCCNCc1cccc(Nc2ccnc3cc(Cl)ccc23)c1
inactive: dose: 75.0 mg/kg/injection, schedule: Q01DX001 (ip), vehicle: carboxymethylcellulose (CMC) 103 % of control | dose: 150.0 mg/kg/injection, schedule: Q01DX001 (ip), vehicle: carboxymethylcellulose (CMC) 95 % of control

CN(C)c1ccc(C(C#N)=C(C#N)C#N)cc1
inactive: [1] 96 % of control | dose: 100.0 mg/kg/injection, schedule: Q01DX009 (ip), vehicle: acetone 97 % of control | [2] 99 % of control | dose: 200.0 mg/kg/injection, schedule: Q01DX009 (ip), vehicle: acetone 97 % of control | [4] 94 % of control

CCCCCCCCN(C(=S)NC(=O)c1ccccc1)c1ccccc1
inactive: dose: 100.0 mg/kg/injection, schedule: Q04DX003 (ip), vehicle: Klucel (hydroxypropylcellulose) (HPC) 93 % of control | dose: 200.0 mg/kg/injection, schedule: Q04DX003 (ip), vehicle: Klucel (hydroxypropylcellulose) (HPC) 89 % of control | dose: 400.0 mg/kg/injection, schedule: Q04DX003 (ip), vehicle: Klucel (hydroxypropylcellulose) (HPC) 91 % of control
